Data taken from US20200352918A1, “COMPOUNDS AND METHODS FOR TREATING OR PREVENTING FIBROSIS” (priority 2019, published 2020).

Experiments:
[1] = tested on: iFA phenotype of mesenchymal-like cells on 13 kPa hydrogels; experiment: iFA-prevention phenotypic high-content drug screen (iFA model); type: cell-based, human
Experimental: Mesenchymal-like cells were cultured on 13 kPa functionalized polyacrylamide gels that were prepared as follows. 187.5 μl of 40% acrylamide, 60 μl of 2% bis-acrylamide and 8.55 μl of sodium bisulfate in a final volume of 990 μl of water was incubated for 20 min at room temperature to degas the mixture. To this mixture, 0.10% ammonium persulfate and 0.15% TEMED were added, mixed and 100 μl of the solution was added onto a 0.4% 3-(Trimethoxysily) propyl methacrylate pH 3.5 treated coverslip. A 2% dimethyl dichlorosilane in chloroform treated round glass coverslip was then inverted on the acrylamide solution and allowed to polymerize for 15 min between the two surfaces. The top coverslip was gently removed, and the bottom coverslips with the hydrogel were transferred to appropriate multi-well low adherent tissue culture plate containing coupling buffer (0.1 M sodium phosphate dibasic, 0.1 M sodium phosphate monobasic) pH 8. To functionalize the hydrogel, 1 part of 0.1 M p-benzoquinone in dioxane was added to the hydrogels containing 4 parts of coupling buffer and incubated at 37° C. for 30 min. The gel was then successively washed with 20% dioxane in water, water, 0.1 M sodium acetate buffer at pH 4.0 containing 1.0 M sodium chloride, 0.1 M sodium bicarbonate solution at pH 8.5 containing 1.0 M sodium chloride, and finally with coupling buffer at pH 7.5. The hydrogels were then coated with 0.1% gelatin for 2 hrs prior to seeding the cells. Cells were seeded at a density of 3000 cells/cm^2.
A phenotypic high-content drug screen was prepared to identify compounds capable of preventing the iFA phenotype in a 96-well format. An ImageXpress XL high-throughput imager with a 4× Plan objective (N/A 0.20) was used with image based focusing. Briefly, 100 μL media were plated in each well of 96 well plate using a Thermo Multidrop non-contact dispenser. Using a custom V&P pin tool mounted to a Beckman FX liquid handler, 1.5 μL compounds or DMSO were added. Mesenchymal-like cells were added as a suspension using the Multidrop at a density of 3.5×10^3 cells/well. The resulting compound concentration was 10 μM. Cells were imaged after 7 days of incubation at 37° C. and 5% CO2: A final of 0.5 μg/ml of Calcein AM and/or 10 μg/ml propidium iodide (viability dye) with 1 μg/ml Hoechst 33342 were added and imaged using the ImageXpress XL system. Data mining was performed using a custom module consisting of the following steps: The image background was removed using a top-hat filter with 25 μm round shape polisher. Next, cellular aggregates and individual spindle-shaped cells were identified. Aggregates of cells were defined by size with a cut-off of 60 to 200 micron and an intensity of at least 200 gray scales over background. Individual spindle-shaped cells were identified as smaller objects with cut-offs from 15 to 100 micron and a lower intensity of at least 70 gray scales over background.
Additional morphometric measurements were made by counting labeled cell nuclei and measuring total area covered with cells per well. The data resulting from the screen were batch exported through MetaXpress and uploaded into a Collaborative Drug Discovery (CDD) cloud based database (Ekins and Bunin, 2013, Methods in molecular biology 993, 139-154.). Hits were selected on a cut-off of more than 3 standard deviations from mean using data normalized to reference wells in each plate. IC50 values (the half maximal inhibitory concentration) from confirmation experiments were calculated from dose-response signal curves using the Prism software (GraphPad Software).
Signal-to-background (S/B) ratio, standard variation and variation coefficients were calculated as the signal of DMSO treated wells divided by the signal of the hit compound (AA5) treated wells. […]

[2] = tested on: iFA phenotype of mesenchymal-like cells on 13 kPa hydrogels; experiment: iFA resolution screen (reversal of fibrosis) in the iFA model; type: cell-based, human; conditions: phenotype formed over 10 days, then compounds added
Experimental: Signal-to-background (S/B) ratio, standard variation and variation coefficients were calculated as the signal of DMSO treated wells divided by the signal of the hit compound (AA5) treated wells. Z′ values were used to measure assay quality which was calculated by the formula of Z′=1−3(SDTotal+SDBackground)/(MeanTotal−MeanBackground)(Inglese et al., 2006) where SDTotal and MeanTotal are the standard deviation and mean of signal for DMSO treated wells, and SDBackground and MeanBackground are the standard deviation and mean of signal for AA5 treated wells. Data normalization and curve fitting were performed as previously reported (Kariv et al., 1999, J Biomol Screen 4, 27-32.). Z′ values were obtained for the number of cellular aggregates and also calculated a phenotypic cell index as the product of cell number x area/Log(number of iFA aggregates+5). Secondary screening using α-SMA and collagen deposition was employed to further ensure efficacy and resolution of the iFA phenotype of the compounds. For the resolution screen, cells were seeded in a 96-well plate as mentioned above and compounds were added at day 13 to analyze their capacity to resolve the iFA phenotype using the same readouts as above. Dose response experiments were carried out as in the secondary screen but with at least 12 steps of a 1:1 dilution resulting in final compound concentrations from 500 μM to high nanomolar ranges.
The primary assay involved plating together the iPSCs and Table 1 compounds sourced from the library on day 1 on the hydrogel and examining the phenotype on day 7 of the culture as described herein. The secondary screen repeated the assay using compound sourced commercially or from additional library materials. The dose response refers to a 20 point dose course that ranges from picomolar to millimolar concentrations. […] As described herein, the cellular phenotype parameters evaluated included size, fluorescence intensity of the iFA phenotype, the shape factor of the cells/aggregates, and the cells' viability in the presence of viability dyes (Calcein AM).

For `CNC(C)Cc1cccs1` (stereo not shown) [Methiopropamine], the Dose response ([1]; 20 point dose course, picomolar to millimolar) was “+++ (+++ = strong effect)”, the “Efficacy in secondary screen” value ([1]; assay repeated with compound sourced commercially or from additional library materials) was “+++ (+++ = strong effect)” and the “Efficacy in primary screen” value ([1]; library compound plated with cells on day 1 on hydrogel, phenotype on day 7, 10 μM) was “+++ (+++ = strong effect)”. For the same molecule, the Reversal of fibrosis [2] was “Yes”.
